ChEMBL document CHEMBL5365501, “Brain-penetrant cyanoindane and cyanotetralin inhibitors of G2019S-LRRK2 kinase activity” (Bioorg Med Chem Lett, 2023)

Key:
[1] = molecular target: T1, Leucine-rich repeat serine/threonine-protein kinase 2 (Homo sapiens, UniProt Q5S007, G2019S); test: Inhibition of LRRK2 G2019S mutant (unknown origin) using LRRKtide as substrate pre-incubated for 15 min and measured after 1 hrs by HTRF assay
[2] = molecular target: T1, Leucine-rich repeat serine/threonine-protein kinase 2; test: Inhibition of human LRRK2 G2019S mutant phosphorylation at S1292 in human HEK293 cells incubated for 2 hrs; type: cell-based
[3] = Stability in human liver microsomes assessed as half life at 0.5 uM incubated up to 45 min in the presence of NADPH regenerating system by LC MS/MS analysis; type: ADME, Microsome
MDR1 (P-gp) = test: Efflux ratio of permeability across basolateral to apical side over apical to basolateral side in dog MDCKII-MDR1 cells; type: ADME, cell-based, Canis lupus familiaris; settings: MDCK-MDR1
[4] = molecular target: T1, Leucine-rich repeat serine/threonine-protein kinase 2; test: Inhibition of phosphorylated human LRRK2 G2019S mutant at S935 in human HEK293 cells incubated for 2 hrs; type: cell-based
[5] = Stability in rat liver microsomes assessed as half life at 0.5 uM incubated up to 45 min in the presence of NADPH regenerating system by LC MS/MS analysis; type: ADME, Microsome

T1 sequence (Q5S007 whole entry G2019S): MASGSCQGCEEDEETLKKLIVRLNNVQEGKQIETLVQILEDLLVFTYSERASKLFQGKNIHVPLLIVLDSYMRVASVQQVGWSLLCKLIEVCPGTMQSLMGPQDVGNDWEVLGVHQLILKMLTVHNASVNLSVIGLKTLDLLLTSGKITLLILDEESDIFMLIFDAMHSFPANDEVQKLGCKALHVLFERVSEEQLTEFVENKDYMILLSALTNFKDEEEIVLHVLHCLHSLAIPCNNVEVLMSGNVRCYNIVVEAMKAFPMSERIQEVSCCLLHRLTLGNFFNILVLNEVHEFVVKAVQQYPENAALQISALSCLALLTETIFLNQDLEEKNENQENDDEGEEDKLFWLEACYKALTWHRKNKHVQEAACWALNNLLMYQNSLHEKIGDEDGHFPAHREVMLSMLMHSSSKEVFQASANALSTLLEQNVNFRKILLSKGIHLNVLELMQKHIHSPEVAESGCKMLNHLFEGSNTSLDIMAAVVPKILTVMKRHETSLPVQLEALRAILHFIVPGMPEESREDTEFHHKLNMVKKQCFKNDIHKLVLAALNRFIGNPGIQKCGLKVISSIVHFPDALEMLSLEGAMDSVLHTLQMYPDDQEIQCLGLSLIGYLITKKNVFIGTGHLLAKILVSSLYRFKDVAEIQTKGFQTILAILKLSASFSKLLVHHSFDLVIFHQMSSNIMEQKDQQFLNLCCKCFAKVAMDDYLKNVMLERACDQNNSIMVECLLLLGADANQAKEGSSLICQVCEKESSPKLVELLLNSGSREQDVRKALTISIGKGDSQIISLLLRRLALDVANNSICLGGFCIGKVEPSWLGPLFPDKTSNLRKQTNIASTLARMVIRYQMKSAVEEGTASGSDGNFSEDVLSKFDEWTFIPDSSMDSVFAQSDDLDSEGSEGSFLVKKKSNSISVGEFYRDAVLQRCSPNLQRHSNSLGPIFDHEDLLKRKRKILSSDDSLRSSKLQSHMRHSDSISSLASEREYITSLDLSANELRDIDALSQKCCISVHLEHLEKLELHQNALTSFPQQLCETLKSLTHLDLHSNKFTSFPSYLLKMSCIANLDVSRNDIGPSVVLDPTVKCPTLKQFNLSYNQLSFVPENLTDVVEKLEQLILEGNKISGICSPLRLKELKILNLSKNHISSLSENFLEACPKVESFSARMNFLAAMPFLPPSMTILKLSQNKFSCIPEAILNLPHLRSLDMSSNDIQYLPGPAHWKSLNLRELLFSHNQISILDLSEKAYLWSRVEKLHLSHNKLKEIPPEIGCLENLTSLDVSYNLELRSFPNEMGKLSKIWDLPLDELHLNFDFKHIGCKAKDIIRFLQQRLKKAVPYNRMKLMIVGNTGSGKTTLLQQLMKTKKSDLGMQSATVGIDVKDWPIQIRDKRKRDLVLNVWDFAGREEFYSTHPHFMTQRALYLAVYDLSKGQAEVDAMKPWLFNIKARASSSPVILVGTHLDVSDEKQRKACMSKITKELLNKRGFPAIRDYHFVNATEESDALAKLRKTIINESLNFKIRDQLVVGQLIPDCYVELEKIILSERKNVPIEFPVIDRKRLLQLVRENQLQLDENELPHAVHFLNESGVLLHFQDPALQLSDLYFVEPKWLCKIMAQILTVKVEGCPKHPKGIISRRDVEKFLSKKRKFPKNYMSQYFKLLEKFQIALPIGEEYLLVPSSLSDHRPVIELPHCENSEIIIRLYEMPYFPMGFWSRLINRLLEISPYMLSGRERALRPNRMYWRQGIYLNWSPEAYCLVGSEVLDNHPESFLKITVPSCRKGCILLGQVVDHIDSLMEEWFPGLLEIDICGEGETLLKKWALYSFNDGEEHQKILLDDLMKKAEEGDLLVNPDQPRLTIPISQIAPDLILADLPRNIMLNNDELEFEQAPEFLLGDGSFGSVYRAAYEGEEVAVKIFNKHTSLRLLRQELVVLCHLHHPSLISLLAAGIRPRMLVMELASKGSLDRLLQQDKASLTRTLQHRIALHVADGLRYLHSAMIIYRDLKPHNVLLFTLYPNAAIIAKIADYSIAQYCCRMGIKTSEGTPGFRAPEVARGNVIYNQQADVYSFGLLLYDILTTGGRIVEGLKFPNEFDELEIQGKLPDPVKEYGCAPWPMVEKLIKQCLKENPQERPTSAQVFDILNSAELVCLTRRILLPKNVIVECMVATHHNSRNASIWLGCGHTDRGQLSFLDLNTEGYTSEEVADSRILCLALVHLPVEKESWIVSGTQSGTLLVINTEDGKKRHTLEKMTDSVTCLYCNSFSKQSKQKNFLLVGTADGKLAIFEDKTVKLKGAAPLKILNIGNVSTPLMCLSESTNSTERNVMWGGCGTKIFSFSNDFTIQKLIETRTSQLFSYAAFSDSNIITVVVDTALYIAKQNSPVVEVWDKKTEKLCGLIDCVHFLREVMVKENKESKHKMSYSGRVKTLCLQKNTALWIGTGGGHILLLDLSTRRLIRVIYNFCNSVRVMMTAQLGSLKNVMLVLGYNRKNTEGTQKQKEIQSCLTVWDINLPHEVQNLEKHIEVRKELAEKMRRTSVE

Structure (SMILES)	IC50 [1]	other results
CC1=C(C(=O)Nc2ccc3[nH]ncc3c2)Cn2nnnc2N1C	0.035 µM	
CC1=C(C(=O)Nc2ccc3[nH]nc(-c4ccccc4)c3c2)C(C)(C)n2nnnc2N1C	0.003 µM	
COCc1ccc(C(=O)Nc2ccc3[nH]nc(-c4ccoc4)c3c2)cc1	0.098 µM	
CS(=O)(=O)c1ccc(C(=O)Nc2ccc3[nH]nc(-c4ccoc4)c3c2)cc1	0.049 µM	
Cc1n[nH]c2ccc(O[C@@H]3CCc4cc(C#N)ccc43)cc12	0.062 µM	
Cn1ncc2cc(C(=O)Nc3ccc4[nH]nc(-c5ccoc5)c4c3)ccc21	0.013 µM	efflux ratio (MDR1 (P-gp)): 9.2
N#Cc1ccc2c(c1)[C@@H](Nc1ccc3[nH]nc(Br)c3c1)CCC2	0.014 µM	
N#Cc1ccc2c(c1)CCC[C@@H]2Nc1ccc2[nH]nc(-c3cnco3)c2c1	0.0009 µM	
N#Cc1ccc2c(c1)CCC[C@@H]2Oc1ccc2[nH]nc(-c3ccnc(N4CCOCC4)c3)c2c1	0.0014 µM	
O=C(Nc1ccc2[nH]nc(-c3ccoc3)c2c1)c1cnc2cnccc2c1	0.173 µM	
O=C(Nc1ccc2[nH]nc(-c3ccoc3)c2c1)c1nc2cnccc2s1	0.074 µM	
N#Cc1ccc2c(c1)C(=O)N(c1ccc3[nH]nc(C4CC4)c3c1)C2=O	> 7.6 µM	
N#Cc1ccc2c(c1)CCN(c1ccc3[nH]nc(C4CC4)c3c1)C2=O	5.5 µM	
N#Cc1ccc(C(=O)Nc2ccc3[nH]nc(-c4ccoc4)c3c2)cc1	0.041 µM	efflux ratio (MDR1 (P-gp)): 1.9
N#Cc1ccc2c(c1)CN(c1ccc3[nH]nc(C4CC4)c3c1)C2=O	0.615 µM	
Cc1n[nH]c2ccc(O[C@H]3CCCc4cc(C#N)ccc43)cc12	0.0028 µM	IC50 [2]: 0.062 µM; half-life at 0.5 µM [3]: 35 min; efflux ratio (MDR1 (P-gp)): 1.3; IC50 [4]: 0.137 µM; half-life at 0.5 µM [5]: 18 min

Now from value to compound, other results behind:

IC50 [1]	Structure (SMILES)	other results
0.011 µM	N#Cc1ccc2c(c1)CC[C@@H]2Nc1ccc2[nH]nc(-c3ccoc3)c2c1	IC50 [2]: 0.057 µM; half-life at 0.5 µM [3]: 25 min; efflux ratio (MDR1 (P-gp)): 1.8; IC50 [4]: 0.096 µM; half-life at 0.5 µM [5]: 54 min
0.79 µM	N#Cc1ccc(C(=O)Nc2ccc3[nH]nc(C4CC4)c3c2)cc1	
0.063 µM	N#Cc1ccc2c(c1)CC[C@H]2Nc1ccc2[nH]nc(-c3ccoc3)c2c1	
< 0.0002 µM	N#Cc1ccc2c(c1)CCC[C@@H]2Oc1ccc2[nH]nc(-c3cnco3)c2c1	IC50 [2]: 0.0035 µM; half-life at 0.5 µM [3]: 28 min; efflux ratio (MDR1 (P-gp)): 1.7; IC50 [4]: 0.0062 µM; half-life at 0.5 µM [5]: 42 min
0.25 µM	CN(C)Cc1ccc(C(=O)Nc2ccc3[nH]nc(-c4ccoc4)c3c2)cc1	
0.014 µM	Cc1n[nH]c2ccc(O[C@H]3CCc4cc(C#N)ccc43)cc12	
0.0004 µM	N#Cc1ccc2c(c1)CC[C@@H]2Oc1ccc2[nH]nc(-c3cnco3)c2c1	IC50 [2]: 0.0083 µM; half-life at 0.5 µM [3]: 61 min; efflux ratio (MDR1 (P-gp)): 2.2; IC50 [4]: 0.027 µM; half-life at 0.5 µM [5]: 53 min
